Laboratory results published in ChEMBL document CHEMBL5620401, “Design, synthesis, and biological evaluation of novel spirocyclic compounds as potential anti-glioblastoma agents” (Eur J Med Chem, 2023).
Active and inactive are the calls of the source. No cut-off for these calls is given here.

Legend:
[1] = tested on: U-87 MG; experiment: Antiproliferative activity against human U87 cells assessed as cell viability measured after 72 hrs by MTT assay; format: functional, cell-based, U-87MG ATCC
[2] = Permeability coefficient of compound by lipid-PAMPA assay; format: ADME; conditions: read-out: Peff
[3] = tested on: U-87 MG; experiment: Antiproliferative activity against human U87 cells assessed as inhibition rate at 20 uM measured after 72 hrs by MTT assay relative to control; format: functional, U-87MG ATCC
[4] = tested on: U-251; experiment: Antiproliferative activity against human U-251 cells assessed as cell viability measured after 72 hrs by MTT assay; format: functional, cell-based; conditions: for IC50: U-251, 72 h
[5] = tested on: U-251; experiment: Antiproliferative activity against human U-251 cells assessed as inhibition rate at 20 uM measured after 72 hrs by MTT assay relative to control; format: functional

IC50 [1]	Papp [2]	IC50 [4]	Structure (SMILES)	inhibition at 20 µM [3]	inhibition at 20 µM [5]	Activity [4]
14.6 µM	26.9 ×10⁻⁶ cm/s	13.9 µM	O=C(CBr)N1CCN(Cc2ccccc2)C12COC2	74.3%	63.9%	
> 10 µM		12.6 µM	O=C(/C=C/c1ccc(C(=O)N2CCN(Cc3ccccc3)C23COC3)o1)c1ccsc1			
10.4 µM		7.4 µM	O=C(/C=C/c1ccccc1C(=O)N1CCN(Cc2ccccc2)C12COC2)c1ccccc1			
5.5 µM		4.9 µM	COc1cc(C(=O)/C=C/c2ccccc2C(=O)N2CCN(Cc3ccccc3)C23COC3)cc(OC)c1OC			
14.9 µM		7.6 µM	COc1cc(C(=O)/C=C/c2ccc(C(=O)N3CCN(Cc4ccccc4)C34COC4)o2)cc(OC)c1OC			
3.1 µM		2.1 µM	O=C(/C=C/c1cccc(C(=O)N2CCN(Cc3ccccc3)C23COC3)c1)c1ccccc1			
2 µM		1.4 µM	COc1cc(/C=C/C(=O)c2ccc(C(=O)N3CCN(Cc4ccccc4)C34COC4)s2)cc(OC)c1OC			
5.2 µM		4.2 µM	O=C(/C=C/c1ccc(C(=O)N2CCN(Cc3ccccc3)C23COC3)cc1)c1ccccn1			
4.1 µM		1.9 µM	O=C(/C=C/c1ccc(C(=O)N2CCN(Cc3ccccc3)C23COC3)s1)c1ccsc1			
			COc1cc(C(=O)CCc2ccc(C(=O)N3CCN(Cc4ccccc4)C34COC4)cc2)cc(OC)c1OC			Active
7.3 µM		5.5 µM	O=C(/C=C/c1ccc(C(=O)N2CCN(Cc3ccccc3)C23COC3)cc1)c1cccnc1			
7.2 µM		6.2 µM	O=C(/C=C/c1cccc(C(=O)N2CCN(Cc3ccccc3)C23COC3)c1)c1ccncc1			
8.5 µM		3.6 µM	O=C(/C=C/c1ccc(C(=O)N2CCN(Cc3ccccc3)C23COC3)cc1)c1ccsc1			
10.5 µM		6 µM	O=C(/C=C/c1ccc(C(=O)N2CCN(Cc3ccccc3)C23COC3)o1)c1ccncc1			
6.7 µM		6.6 µM	O=C(/C=C/c1ccc(C(=O)N2CCN(Cc3ccccc3)C23COC3)s1)c1ccncc1			
3.5 µM		1.7 µM	COc1ccc(C(=O)/C=C/c2ccc(C(=O)N3CCN(Cc4ccccc4)C34COC4)cc2)c(OC)c1OC			
> 10 µM		> 10 µM	COc1ccc(C(=O)/C=C/c2ccccc2C(=O)N2CCN(Cc3ccccc3)C23COC3)cc1OC			
3.7 µM		1.8 µM	COc1ccc(C(=O)/C=C/c2ccc(C(=O)N3CCN(Cc4ccccc4)C34COC4)cc2)cc1OC			
